Experimental data: ChEMBL document CHEMBL3885881, “DrugMatrix”

Species: Rattus norvegicus
Assay: DrugMatrix - Regimen: Daily Repeat
Format: toxicity, organism-based, Sprague-Dawley
Design: regimen Daily Repeat, gender Male, age 6-8 weeks
Settings: in vivo, po, route oral GAVAGE, vehicle .5 % CMC; for ABSOLUTE BASOPHIL / ABSOLUTE EOSINOPHIL / ABSOLUTE LYMPHOCYTE / ABSOLUTE MONOCYTE / ABSOLUTE SEGMENTED NEUTROPHIL / BASOPHIL / EOSINOPHIL / ERYTHROCYTE COUNT / HEMATOCRIT / HEMOGLOBIN / LEUKOCYTE COUNT / LYMPHOCYTE / MEAN CORPUSCULAR HEMOGLOBIN / MEAN CORPUSCULAR HEMOGLOBIN CONCENTRATION / MEAN CORPUSCULAR VOLUME / MONOCYTE / NEUTROPHIL / NUCLEATED RED BLOOD CELLS / PLATELET COUNT: tissue Blood; for ALANINE AMINOTRANSFERASE / ALBUMIN / ALKALINE PHOSPHATASE / ASPARTATE AMINOTRANSFERASE / BLOOD UREA NITROGEN / CARBON DIOXIDE / CHLORIDE / CHOLESTEROL / CREATINE PHOSPHOKINASE / CREATININE / GLUCOSE / LACTATE DEHYDROGENASE / LIPASE / PHOSPHORUS / POTASSIUM / SODIUM / TOTAL BILIRUBIN / TOTAL PROTEIN / URIC ACID: tissue Plasma
[1] = 100 mg/kg, 120 h, dose level Low, time 5 day
[2] = 2500 mg/kg, 72 h, dose level High, time 3 day
[3] = 2500 mg/kg, 120 h, dose level High, time 5 day

NC(=O)CN1CCCC1=O
ABSOLUTE BASOPHIL [1]: 0 CELLS/uL
ABSOLUTE EOSINOPHIL [1]: 42 CELLS/uL
ABSOLUTE LYMPHOCYTE [1]: 9826.67 CELLS/uL
ABSOLUTE MONOCYTE [1]: 141.33 CELLS/uL
ABSOLUTE SEGMENTED NEUTROPHIL [1]: 823.33 CELLS/uL
BASOPHIL [1]: 0%
EOSINOPHIL [1]: 0.33%
ERYTHROCYTE COUNT [1]: 5.31 x10E6/uL
HEMATOCRIT [1]: 34.1%
HEMOGLOBIN [1]: 13.87 G/DL
LEUKOCYTE COUNT [1]: 10.83 x10E3/uL
LYMPHOCYTE [1]: 90.67%
MEAN CORPUSCULAR HEMOGLOBIN [1]: 26.1 pg
MEAN CORPUSCULAR HEMOGLOBIN CONCENTRATION [1]: 40.7 G/DL
MEAN CORPUSCULAR VOLUME [1]: 64.2 fL
MONOCYTE [1]: 1.33%
NEUTROPHIL [1]: 7.67%
NUCLEATED RED BLOOD CELLS [1]: 0 /100WBC
PLATELET COUNT [1]: 1439.67 x10E3/uL
ALANINE AMINOTRANSFERASE [1]: 57.33 u/L
ALBUMIN [1]: 4.37 G/DL
ALKALINE PHOSPHATASE [1]: 345.67 u/L
ASPARTATE AMINOTRANSFERASE [1]: 81.33 u/L
BLOOD UREA NITROGEN [1]: 14 mg/dL
CARBON DIOXIDE [1]: 31 mmol/L
CHLORIDE [1]: 101.33 MEQ/L
CHOLESTEROL [1]: 79 mg/dL
CREATINE PHOSPHOKINASE [1]: 221.33 u/L
CREATININE [1]: 0.2 mg/dL
GLUCOSE [1]: 137.33 mg/dL
LACTATE DEHYDROGENASE [1]: 190.33 u/L
LIPASE [1]: 10 u/L
PHOSPHORUS [1]: 12 mg/dL
POTASSIUM [1]: 6.54 MEQ/L
SODIUM [1]: 144.03 MEQ/L
TOTAL BILIRUBIN [1]: 0.23 mg/dL
TOTAL PROTEIN [1]: 6.17 G/DL
URIC ACID [1]: 1.2 mg/dL
ABSOLUTE BASOPHIL [2]: 0 CELLS/uL
ABSOLUTE EOSINOPHIL [2]: 0 CELLS/uL
ABSOLUTE LYMPHOCYTE [2]: 13503 CELLS/uL
ABSOLUTE MONOCYTE [2]: 41.67 CELLS/uL
ABSOLUTE SEGMENTED NEUTROPHIL [2]: 1822 CELLS/uL
BASOPHIL [2]: 0%
EOSINOPHIL [2]: 0%
ERYTHROCYTE COUNT [2]: 5.25 x10E6/uL
HEMATOCRIT [2]: 34.27%
HEMOGLOBIN [2]: 13.27 G/DL
LEUKOCYTE COUNT [2]: 15.37 x10E3/uL
LYMPHOCYTE [2]: 88.33%
MEAN CORPUSCULAR HEMOGLOBIN [2]: 25.33 pg
MEAN CORPUSCULAR HEMOGLOBIN CONCENTRATION [2]: 38.77 G/DL
MEAN CORPUSCULAR VOLUME [2]: 65.3 fL
MONOCYTE [2]: 0.33%
NEUTROPHIL [2]: 11.33%
NUCLEATED RED BLOOD CELLS [2]: 0 /100WBC
PLATELET COUNT [2]: 1334.33 x10E3/uL
ALANINE AMINOTRANSFERASE [2]: 49 u/L
ALBUMIN [2]: 3.97 G/DL
ALKALINE PHOSPHATASE [2]: 347.33 u/L
ASPARTATE AMINOTRANSFERASE [2]: 74 u/L
BLOOD UREA NITROGEN [2]: 20.67 mg/dL
CARBON DIOXIDE [2]: 31 mmol/L
CHLORIDE [2]: 102.67 MEQ/L
CHOLESTEROL [2]: 67.67 mg/dL
CREATINE PHOSPHOKINASE [2]: 351.33 u/L
CREATININE [2]: 0.18 mg/dL
GLUCOSE [2]: 147.33 mg/dL
LACTATE DEHYDROGENASE [2]: 239 u/L
LIPASE [2]: 9.67 u/L
PHOSPHORUS [2]: 12.57 mg/dL
POTASSIUM [2]: 6.21 MEQ/L
SODIUM [2]: 146 MEQ/L
TOTAL BILIRUBIN [2]: 0.2 mg/dL
TOTAL PROTEIN [2]: 5.7 G/DL
URIC ACID [2]: 1.4 mg/dL
ABSOLUTE BASOPHIL [3]: 0 CELLS/uL
ABSOLUTE EOSINOPHIL [3]: 37.33 CELLS/uL
ABSOLUTE LYMPHOCYTE [3]: 8603 CELLS/uL
ABSOLUTE MONOCYTE [3]: 37.33 CELLS/uL
ABSOLUTE SEGMENTED NEUTROPHIL [3]: 1055.67 CELLS/uL
BASOPHIL [3]: 0%
EOSINOPHIL [3]: 0.33%
ERYTHROCYTE COUNT [3]: 5.53 x10E6/uL
HEMATOCRIT [3]: 34.87%
HEMOGLOBIN [3]: 14.13 G/DL
LEUKOCYTE COUNT [3]: 9.73 x10E3/uL
LYMPHOCYTE [3]: 88.67%
MEAN CORPUSCULAR HEMOGLOBIN [3]: 25.6 pg
MEAN CORPUSCULAR HEMOGLOBIN CONCENTRATION [3]: 40.53 G/DL
MEAN CORPUSCULAR VOLUME [3]: 63.17 fL
MONOCYTE [3]: 0.33%
NEUTROPHIL [3]: 10.67%
NUCLEATED RED BLOOD CELLS [3]: 0 /100WBC
PLATELET COUNT [3]: 1291.33 x10E3/uL
ALANINE AMINOTRANSFERASE [3]: 61.33 u/L
ALBUMIN [3]: 4.27 G/DL
ALKALINE PHOSPHATASE [3]: 359.33 u/L
ASPARTATE AMINOTRANSFERASE [3]: 86.33 u/L
BLOOD UREA NITROGEN [3]: 18.33 mg/dL
CARBON DIOXIDE [3]: 28.67 mmol/L
CHLORIDE [3]: 101.67 MEQ/L
CHOLESTEROL [3]: 64 mg/dL
CREATINE PHOSPHOKINASE [3]: 310 u/L
CREATININE [3]: 0.16 mg/dL
GLUCOSE [3]: 160.33 mg/dL
LACTATE DEHYDROGENASE [3]: 149.33 u/L
LIPASE [3]: 7.33 u/L
PHOSPHORUS [3]: 12.07 mg/dL
POTASSIUM [3]: 5.7 MEQ/L
SODIUM [3]: 146.23 MEQ/L
TOTAL BILIRUBIN [3]: 0.17 mg/dL
TOTAL PROTEIN [3]: 6.17 G/DL
URIC ACID [3]: 1.67 mg/dL
